Measured values published in ChEMBL document CHEMBL1165948, “The scope of thallium nitrate oxidative cyclization of chalcones; synthesis and evaluation of isoflavone and aurone analogs for their inhibitory activity against interleukin-5” (Bioorg Med Chem, 2010).

Target: T1, Interleukin-5 (Mus musculus) (UniProt P04401)
T1 sequence (whole entry): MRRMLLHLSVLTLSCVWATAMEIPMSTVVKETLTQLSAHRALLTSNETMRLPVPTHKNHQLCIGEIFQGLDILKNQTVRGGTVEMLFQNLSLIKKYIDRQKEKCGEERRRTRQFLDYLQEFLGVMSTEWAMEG
Assay: Inhibition of IL5-mediated proliferation of mouse Y16 cells at 50 uM by WST1 assay
Assay type: cell-based

Structure (SMILES): O=C1/C(=C/c2ccc([N+](=O)[O-])cc2)Oc2cccc(OCC3CCCCC3)c21
- inhibition: 5.7%

Structure (SMILES): COc1cc(-c2coc3cccc(OCC4CCCCC4)c3c2=O)ccc1O
- inhibition: 15.7%

Structure (SMILES): COc1cc(-c2coc3cccc(OCC4CCCCC4)c3c2=O)ccc1OCc1ccccc1
- inhibition: 99.8%

Structure (SMILES): COc1ccc(-c2coc3cccc(OCC4CCCCC4)c3c2=O)cc1OC
- inhibition: 30.6%

Structure (SMILES): O=Cc1ccc(/C=C2\Oc3cccc(OCC4CCCCC4)c3C2=O)cc1
- inhibition: 8%

Structure (SMILES): COC(=O)c1ccc(/C=C2\Oc3cccc(OCC4CCCCC4)c3C2=O)cc1
- inhibition: 3.5%

Structure (SMILES): O=c1c(-c2ccc(O)cc2)coc2cccc(OCC3CCCCC3)c12
- inhibition: 91.7%

Structure (SMILES): COc1cc(-c2coc3cccc(OCC4CCCCC4)c3c2=O)cc(OC)c1OC
- inhibition: > 100%

Structure (SMILES): CCc1ccc(/C=C2\Oc3cccc(OCC4CCCCC4)c3C2=O)cc1
- inhibition: 3.8%

Structure (SMILES): O=C1/C(=C/c2ccc(Cl)cc2)Oc2cccc(OCC3CCCCC3)c21
- inhibition: 12.2%

Structure (SMILES): COCOc1ccc(-c2coc3cccc(OCC4CCCCC4)c3c2=O)cc1
- inhibition: 10.5%

Structure (SMILES): O=C1/C(=C/c2ccccc2)Oc2cccc(OCC3CCCCC3)c21
- inhibition: 3.1%

Structure (SMILES): COc1ccc(-c2coc3cccc(OCC4CCCCC4)c3c2=O)c(OC)c1
- inhibition: 15.6%

Structure (SMILES): CCc1ccc(-c2coc3cccc(OCC4CCCCC4)c3c2=O)cc1
- inhibition: 9.7%

Structure (SMILES): O=c1c(-c2ccc(O[C@@H]3O[C@H](CO)[C@@H](O)[C@H](O)[C@H]3O)cc2)coc2cc(O)cc(O)c12
- inhibition: 92.1%

Structure (SMILES): COc1ccc(-c2coc3cccc(OCC4CCCCC4)c3c2=O)cc1
- inhibition: 15.4%
